Measurements taken from patent US20250034135A1, “ANTI-APOPTOTIC PROTEIN BCL-2 INHIBITOR, PHARMACEUTICAL COMPOSITION AND USES THEREOF” (HANGZHOU HEALZEN THERAPEUTICS CO., LTD., priority 2021, published 2025).

Target: BCL2 (Homo sapiens (Human), UniProt P10415)
Assay: Molecular level activity test of anti-apoptotic protein BCL2 (HTRF, binding to Bim peptide)
Conditions: HTRF, binding of BCL2 to Bim peptide; read-out: BCL2 nM (inhibitory activity, IC50)
Procedure: The detection of the binding ability between anti-apoptotic protein BCL2 and pro-apoptotic protein Bim was performed using Homogeneous Time-Resolved Fluorescence technology. The reaction of this method occurred in a white shallow 384-well plate, with a total reaction volume of 10 μL. Specifically, it included 2 μL of the compound to be tested (2% DMSO), 4 μL His-tagged recombinant protein, and 4 μL Biotin-tagged BIM protein peptide. After 1 hour of reaction, 5 μL of each Anti-His and streptavidin-tagged XL665 antibody diluents diluted with a detection buffer were added. After incubating at room temperature for 4 hours, the values were read using the Envision multifunctional microplate reader to detect the effect of the compound to be tested on the binding ability of BCL2 to Bim protein peptides.

BCL2, sequence (P10415 whole entry): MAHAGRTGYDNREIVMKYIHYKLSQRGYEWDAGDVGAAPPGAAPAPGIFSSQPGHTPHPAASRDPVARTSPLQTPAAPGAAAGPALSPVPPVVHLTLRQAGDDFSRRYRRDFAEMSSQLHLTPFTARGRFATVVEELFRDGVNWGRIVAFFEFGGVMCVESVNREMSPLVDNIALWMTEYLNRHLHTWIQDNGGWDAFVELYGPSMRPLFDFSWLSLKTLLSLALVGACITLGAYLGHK

Compound	IC50 [nM]
CC(C)c1ccccc1C1CN(C2CCOCC2)CCN1C1CC2(C1)CN(c1ccc(C(=O)NS(=O)(=O)c3cc([N+](=O)[O-])c(NCC4(F)CCN(C(C)C)CC4)c4[nH]cnc34)c(Oc3cnc4[nH]ccc4c3)c1)C2 (stereo not shown) [compound 044, 2-((1H-pyrrolo[2,3-b]pyrid-5-yl)oxy)-N-((7-(((4-fluoro-1-isopropylpiperid-4-yl)methyl)amino)-6-nitro-1H-benzo[d]imidazol-4-yl)sulfonyl)-4-(6-(2-(2-isopropylphenyl)-4-(tetrahydro-2H-pyran-4-yl)piperazin-1-yl)-2-azaspiro[3.3]hept-2-yl)benzamide]	< 10
CC(C)c1ccccc1[C@@H]1CCCN1C1CC2(CCN(c3cc(Oc4cnc5[nH]ccc5c4)c(C(=O)NS(=O)(=O)c4cc([N+](=O)[O-])c(NC[C@H]5CC[C@](C)(O)CC5)c5occc45)cc3F)CC2)C1 [compound 095, 2-((1H-pyrrolo[2,3-b]pyrid-5-yl)oxy)-5-fluoro-N-((7-((((1r, 4r)-4-hydroxy-4-methylcyclohexyl)methyl)amino)-6-nitrobenzofuran-4-yl)sulfonyl)-4-(2-((S)-2-(2-isopropylphenyl)pyrrolidin-1-yl)-7-azaspiro[3.5]non-7-yl)benzamide]	< 10
COc1ccc(CN2CCN(C3CC4(CCN(c5ccc(C(=O)NS(=O)(=O)c6cc([N+](=O)[O-])c(NCC7(F)CCOCC7)c7c6OCCO7)c(Oc6cnc7[nH]ccc7c6)c5)CC4)C3)[C@H](c3ccccc3C(C)C)C2)cc1 [compound 181]	< 10
COc1ccc(CN2CCN(C3CC4(CCN(c5cc(Oc6cnc7[nH]ccc7c6)c(C(=O)NS(=O)(=O)c6cc([N+](=O)[O-])c(NCC7(F)CCOCC7)c7c6OCO7)cc5F)CC4)C3)[C@H](c3ccccc3C(C)C)C2)cn1 [compound 126]	< 10
COc1ccc(CN2CCN(C3CC4(C3)CN(c3ccc(C(=O)NS(=O)(=O)c5cc([N+](=O)[O-])c(NC[C@H]6CC[C@](C)(O)CC6)c6[nH]cnc56)c(Oc5cnc6[nH]ccc6c5)c3)C4)C(c3ccccc3C(C)C)C2)cc1 (stereo partly shown) [compound 040, 2-((1H-pyrrolo[2,3-b]pyrid-5-yl)oxy)-N-((7-((((1r,4r)-4-hydroxy-4-methylcyclohexyl)methyl)amino)-6-nitro-1H-benzo[d]imidazol-4-yl)sulfonyl)-4-(6-(2-(2-isopropylphenyl)-4-(4-methoxybenzyl)piperazin-1-yl)-2-azaspiro[3.3]hept-2-yl)benzamide]	< 10
CC(C)c1ccccc1[C@@H]1CN(Cc2ccc(C#N)cc2)CCN1C1CC2(CCN(c3cc(Oc4cnc5[nH]ccc5c4)c(C(=O)NS(=O)(=O)c4ccc(NCC5(F)CCOCC5)c([N+](=O)[O-])c4)cc3F)CC2)C1 [compound 199, (R)-2-((1H-pyrrolo[2,3-b]pyrid-5-yl)oxy)-4-(2-(4-(4-cyanobenzyl)-2-(2-isopropylphenyl)piperazin-1-yl)-7-azaspiro[3.5]non-7-yl)-5-fluoro-N-((4-(((4-fluorotetrahydro-2H-pyran-4-yl)methyl)amino)-3-nitrophenyl)sulfonyl)benzamide]	< 10
CC(C)c1ccccc1[C@@H]1CCCN1C1CC2(CCN(c3ccc(C(=O)NS(=O)(=O)c4cc([N+](=O)[O-])c(NC[C@H]5CC[C@](C)(O)CC5)c5[nH]cnc45)c(N4CCOc5nc6[nH]ccc6cc54)c3)CC2)C1 [compound 079, 2-(2,3-dihydropyrrolo[3′,2′:5,6]pyridino[2,3-b][1,4]oxazin-1 (6H)-yl)-N-((7-((((1r,4r)-4-hydroxy-4-methylcyclohexyl)methyl)amino)-6-nitro-1H-benzo[d]imidazol-4-yl)sulfonyl)-4-(2-((S)-2-(2-isopropylphenyl)pyrrolidin-1-yl)-7-azaspiro[3.5]non-7-yl)benzamide]	< 10

Other lines, results leading:

IC50 [nM]	Compound
< 10	COc1ccc(CN2CCN(C3CC4(CCN(c5cc(Oc6cnc7[nH]ccc7c6)c(C(=O)NS(=O)(=O)c6cc([N+](=O)[O-])c(NCC7(F)CCOCC7)c7ocnc67)cc5F)CC4)C3)[C@H](c3ccccc3C(C)C)C2)cc1 [compound 107, (R)-2-((1H-pyrrolo[2,3-b]pyrid-5-yl)oxy)-5-fluoro-N-((7-(((4-fluorotetrahydro-2H-pyran-4-yl)methyl)amino)-6-nitrobenzo[d]oxazol-4-yl)sulfonyl)-4-(2-(2-(2-isopropylphenyl)-4-(4-methoxybenzyl)piperazin-1-yl)-7-azaspiro[3.5]non-7-yl)benzamide]
< 10	COc1ccc(CN2CCN(C3CC4(CCN(c5cc(Oc6cnc7[nH]ccc7c6)c(C(=O)NS(=O)(=O)c6cc([N+](=O)[O-])c(NC[C@H]7CC[C@](C)(O)CC7)c7ocnc67)cn5)CC4)C3)[C@H](c3ccccc3C(C)C)C2)cc1 [compound 138, 4-((1H-pyrrolo[2,3-b]pyrid-5-yl)oxy)-N-((7-((((1r, 4r)-4-hydroxy-4-methylcyclohexyl)methyl)amino)-6-nitrobenzo[d]oxazol-4-yl)sulfonyl)-6-(2-((R)-2-(2-isopropylphenyl)-4-(4-methoxybenzyl)piperazin-1-yl)-7-azaspiro[3.5]non-7-yl) nicotinamide]
< 10	COc1ccc(CN2CCN(C3CC4(CCN(c5cc(Oc6cnc7[nH]ccc7c6)c(C(=O)NS(=O)(=O)c6cc([N+](=O)[O-])c(NCC7(F)CCOCC7)c7c6OCO7)cn5)CC4)C3)[C@H](c3ccccc3C(C)C)C2)cc1 [compound 132, (R)-4-((1H-pyrrolo[2,3-b]pyrid-5-yl)oxy)-N-((7-(((4-fluorotetrahydro-2H-pyran-4-yl)methyl)amino)-6-nitrobenzo[d][1,3]dioxocyclopent-4-yl)sulfonyl)-6-(2-(2-(2-isopropylphenyl)-4-(4-methoxybenzyl)piperazin-1-yl)-7-azaspiro[3.5]non-7-yl) nicotinamide]
< 10	CC(=O)N1CCC(F)(CNc2c([N+](=O)[O-])cc(S(=O)(=O)NC(=O)c3cc(F)c(N4CCC5(CC4)CC(N4CCC[C@H]4c4ccccc4C(C)C)C5)cc3Oc3cnc4[nH]ccc4c3)c3nc[nH]c23)CC1 [compound 028, (S)-2-((1H-pyrrolo[2,3-b]pyrid-5-yl)oxy)-N-((7-(((1-acetyl-4-fluoropiperid-4-yl)methyl)amino)-6-nitro-1H-benzo[d]imidazol-4-yl)sulfonyl)-5-fluoro-4-(2-(2-(2-isopropylphenyl)pyrrolidin-1-yl)-7-azaspiro[3.5]non-7-yl)benzamide]
< 10	COc1ccc(CN2CCN(C3CC4(CCN(c5cc(Oc6cnc7[nH]ccc7c6)c(C(=O)NS(=O)(=O)c6cc([N+](=O)[O-])c(NCC7(F)CCOCC7)c7n[nH]c(=O)cc67)cc5F)CC4)C3)[C@H](c3ccccc3C(C)C)C2)cc1 [compound 141, (R)-2-((1H-pyrrolo[2,3-b]pyrid-5-yl)oxy)-5-fluoro-N-((8-(((4-fluorotetrahydro-2H-pyran-4-yl)methyl)amino)-7-nitro-3-oxo-2,3-misoline-5-yl)sulfonyl)-4-(2-(2-(2-isopropylphenyl)-4-(4-methoxybenzyl)piperazin-1-yl)-7-azaspiro[3.5]non-7-yl)benzamide]
< 10	CC(C)c1ccccc1[C@@H]1CN(Cc2cnn(C(C)C)c2)CCN1C1CC2(CCN(c3cc(Oc4cnc5[nH]ccc5c4)c(C(=O)NS(=O)(=O)c4ccc(NC[C@H]5CC[C@](C)(O)CC5)c([N+](=O)[O-])c4)cc3F)CC2)C1 [compound 230, 2-((1H-pyrrolo[2,3-b]pyrid-5-yl)oxy)-5-fluoro-N-((4-((((1r, 4r)-4-hydroxy-4-methylcyclohexyl)methyl)amino)-3-nitrophenyl)sulfonyl)-4-(2-((R)-4-((1-isopropyl-1H-pyrazole-4-yl)methyl)-2-(2-isopropylphenyl)piperazin-1-yl)-7-azaspiro[3.5]non-7-yl)benzamide]
< 10	COc1ccc(CN2CCN(C3CC4(CCN(c5cc(Oc6cnc7[nH]ccc7c6)c(C(=O)NS(=O)(=O)c6cc([N+](=O)[O-])c(NC[C@H]7CC[C@](C)(O)CC7)c7scnc67)cc5F)CC4)C3)[C@H](c3ccccc3C(C)C)C2)cc1 [compound 116, 2-((1H-pyrrolo[2,3-b]pyrid-5-yl)oxy)-5-fluoro-N-((7-((((1r, 4r)-4-hydroxy-4-methylcyclohexyl)methyl)amino)-6-nitrobenzo[d]thiazol-4-yl)sulfonyl)-4-(2-((R)-2-(2-isopropylphenyl)-4-(4-methoxybenzyl)piperazin-1-yl)-7-azaspiro[3.5]non-7-yl)benzamide]
< 10	COc1ccc(CN2CCN(C3CC4(CCN(c5ccc(C(=O)NS(=O)(=O)c6cc([N+](=O)[O-])c(NC[C@H]7CC[C@](C)(O)CC7)c7c6OCCO7)c(Oc6cnc7[nH]ccc7c6)c5)CC4)C3)[C@H](c3ccccc3C(C)C)C2)cc1 [compound 182, 2-((1H-pyrrolo[2,3-b]pyrid-5-yl)oxy)-N-((8-((((1r, 4r)-4-hydroxy-4-methylcyclohexyl)methyl)amino)-7-nitro-2,3-dihydrobenzo[b][1,4]dioxan-5-yl)sulfonyl)-4-(2-((R)-2-(2-isopropylphenyl)-4-(4-methoxybenzyl)piperazin-1-yl)-7-azaspiro[3.5]non-7-yl)benzamide]
< 10	CC(C)c1ccccc1[C@@H]1CCCN1C1CC2(CCN(c3cc(Oc4cnc5[nH]ccc5c4)c(C(=O)NS(=O)(=O)c4cc([N+](=O)[O-])c(NCC5(F)CCN(C(C)C)CC5)c5[nH]cnc45)cn3)CC2)C1 [compound 021, (S)-4-((1H-pyrrolo[2,3-b]pyrid-5-yl)oxy)-N-((7-(((4-fluoro-1-isopropylpiperid-4-yl)methyl)amino)-6-nitro-1H-benzo[d]imidazol-4-yl)sulfonyl)-6-(2-(2-(2-isopropylphenyl)pyrrolidin-1-yl)-7-azaspiro[3.5]non-7-yl) nicotinamide]
